Measured values as given in ChEMBL document CHEMBL2169859, “Modulation of tau protein fibrillization by oleocanthal” (J Nat Prod, 2012).
Activity calls are given as the source filed them. The calls are words filed in the database; no cut-off is given here.

Key:
Homo sapiens [1] = species: Homo sapiens; assay: Binding affinity to human recombinant Tau 2N4R expressed in Escherichia coli assessed as change in protein conformation at 10 mM measured for 60 mins by H/D exchange mass spectrometric analysis
Homo sapiens [2] = species: Homo sapiens; assay: Inhibition of arachidonic acid-induced human recombinant Tau 2N4R fibrillation expressed in Escherichia coli preincubated for 1 hr prior to arachidonic acid challenge measured 6 hrs post arachidonic challenge by Thioflavin-S fluorescence assay
Homo sapiens [3] = species: Homo sapiens; assay: Inhibition of arachidonic acid-induced human recombinant Tau 2N4R fibrillation expressed in Escherichia coli assessed as alpha helix formation at 125 uM preincubated for 1 hr prior to arachidonic acid challenge measured 28 hrs post arachidonic challenge by CD spectroscopic analysis
Homo sapiens [4] = species: Homo sapiens; assay: Inhibition of human recombinant Tau 2N4R fibrillation expressed in Escherichia coli assessed as alpha helix formation at 125 uM after 1 hr by CD spectroscopic analysis
Homo sapiens [5] = species: Homo sapiens; assay: Binding affinity to human recombinant Tau 2N4R expressed in Escherichia coli at 0.1 to 25 uM by SPR analysis

Activity (Homo sapiens [1]): Active
inhibition (Homo sapiens [2]): Dose-dependent effect
inhibition (Homo sapiens [3]): Active
inhibition (Homo sapiens [4]): Active
Activity (Homo sapiens [5]): Active
Compound: C/C=C(/C=O)[C@@H](CC=O)CC(=O)OCCc1ccc(O)cc1
